Assay results from US20260028340A1 (Supernus Pharmaceuticals, Inc., priority 2023, published 2026).

Legend:
[1] = Stability in water and in a pH 7.4 buffer; type: physicochemical; conditions: after 24 hours
Procedure: A sample of the 15 mg isolated material was evaluated for stability in water and in a pH 7.4 buffer. After 24 hours, the sample in water had 86% remaining and the sample in the pH 7.4 buffer had 92% remaining. The decomposition gave mainly the ring-opened Compound A as a byproduct.
(§1) 3,3-dimethylacrylic acid (96 mg, 0.96 mmol) and HATU (366 mg, 0.96 mmol) were mixed in 2 mL of DMF and 280 μL of DIPEA was added to the mixture. After the addition of Compound A (183 mg, 0.64 mmol), the mixture was stirred for 2 min. Additional DIPEA (280 μL) was added to the solution, and the yellow solution was stirred at room temperature for 2 hr. After the addition of water, the mixture was extracted with EtOAc (4×). The extract was washed with brine (4×), was dried over MgSO4, and was evaporated. […] This material was purified by prep HPLC to obtain 58 mg of II-7 (86% pure) that contained a later eluting byproduct. A sample was assayed for stability in water (63% at the 24-hour time point) and in a pH 7.4 buffer (77% at the 24 hour time point).

[2] = Storage stability in acetonitrile or acetonitrile/water solution at room temperature; type: physicochemical; conditions: for decomposition in acetonitrile/water: crude product in acetonitrile/water, kept at room temperature overnight
Procedure: Preparatory HPLC of the crude product gave a mixture of the desired compound in addition to some Compound A (formed during the HPLC separation). After the product was treated with dichloromethane, the solution was dried over MgSO4, and was evaporated to give 15 mg of the ether derivative I-5 as an oily solid (97.7% by HPLC). After the sample was stored for 2 days at room temperature (RT) in acetonitrile solution, it had decomposed to approximately 85% purity with the main byproduct being a ring-opened form of Compound A.
as §1
Geranic acid ([…], 0.96 mmol) and HATU (366 mg, 0.96 mmol) were mixed in 2 mL of DMF. Following the addition of 280 μL of DIPEA to the solution, Compound A (180 mg, 0.64 mmol) was added to the solution, and the mixture was stirred for 2 min. Additional DIPEA (280 μL) was added, and the yellow solution was stirred at room temperature for 2 hr. Following the addition of water, the mixture was extracted with EtOAc (4×). The extract was washed with brine (4×), was dried over MgSO4, and was evaporated. The crude product II-9 appeared by HPLC to be over 70% in one peak.

[3] = Pharmacokinetic data in CD-1 mice after oral administration; type: in vivo; conditions: mouse, serum, Table 7: CD-1 mice, nominal dose 5.10 mg/kg Cmpd. A or 6.57-8.40 mg/kg DV salt, analyte: dosed derivative (DV)

Row | Compound | remaining, stability in pH 7.4 buffer [1] [%] | remaining, stability in water [1] [%] | purity after storage in acetonitrile solution ([2]; stored for 2 days at room temperature in acetonitrile solution, initial 97.7% by HPLC) | decomposition in acetonitrile/water [2] | AUC(0-inf) [3] [ng·h/mL] | AUC(0-t) [3] [ng·h/mL] | Cmax [3] [ng/mL] | Tmax [3] [min] | half-life [3] [min]
1 | COC(=O)COC1(c2ccc(Cl)cc2)c2ccccc2C2=NCCN21 (stereo not drawn) [Compound I-5, methyl 2-((5-(4-chlorophenyl)-2,5-dihydro-3H-imidazo[2,1-a]isoindol-5-yl)oxy)acetate] | 92 | 86 | approximately 85% | – | – | – | – | – | –
2 | CC(C)=CC(=O)N1CCN=C1c1ccccc1C(=O)c1ccc(Cl)cc1 [II-7, 1-(2-(2-(4-chlorobenzoyl)phenyl)-4,5-dihydro-1H-imidazol-1-yl)-3-methylbut-2-en-1-one] | 77 | 63 | – | significant decomposition occurred | – | – | – | – | –
3 | CC(C)/C=C/COC1(c2ccc(Cl)cc2)c2ccccc2C2=NCCN21 (stereo not drawn) [Compound I-17, (E)-5-(4-chlorophenyl)-5-((4-methylpent-2-en-1-yl)oxy)-2,5-dihydro-3H-imidazo[2,1-a]isoindole] | – | – | – | – | 33.2 | 27.6 | 25.7 | 15 | 78
4 | CC(C)=CCC/C(C)=C/C(=O)N1CCN=C1c1ccccc1C(=O)c1ccc(Cl)cc1 [II-9, (E)-1-(2-(2-(4-chlorobenzoyl)phenyl)-4,5-dihydro-1H-imidazol-1-yl)-3,7-dimethylocta-2,6-dien-1-one] | – | – | – | complete decomposition occurred | – | – | – | – | –
5 | Clc1ccc(COC2(c3ccc(Cl)cc3)c3ccccc3C3=NCCN32)cc1 (stereo not drawn) [Compound I-16, 5-((4-chlorobenzyl)oxy)-5-(4-chlorophenyl)-2,5-dihydro-3H-imidazo[2,1-a]isoindole] | – | – | – | – | 224 | 174 | 53.3 | 35 | 194
6 | FC(F)(F)c1ccc(COC2(c3ccc(Cl)cc3)c3ccccc3C3=NCCN32)cc1 (stereo not drawn) [Compound I-14, 5-(4-chlorophenyl)-5-((4-(trifluoromethyl)benzyl)oxy)-2,5-dihydro-3H-imidazo[2,1-a]isoindole] | – | – | – | – | 215 | 183 | 56.1 | 30 | 163
7 | COc1ccc(COC2(c3ccc(Cl)cc3)c3ccccc3C3=NCCN32)cc1OC (stereo not drawn) [Compound I-15, 5-(4-chlorophenyl)-5-((3,4-dimethoxybenzyl)oxy)-2,5-dihydro-3H-imidazo[2,1-a]isoindole] | – | – | – | – | 16 | 12.7 | 17.8 | 20 | 29.8
